{"source": "ChEMBL document CHEMBL4507324", "about": "(2021)", "settings_in_all_cases": "Compound concentration 100.0 nM", "key": {"[1]": {"molecular_target": "Dual specificity mitogen-activated protein kinase kinase 3 (Homo sapiens) (UniProt P46734)", "sequence (P46734 whole entry)": "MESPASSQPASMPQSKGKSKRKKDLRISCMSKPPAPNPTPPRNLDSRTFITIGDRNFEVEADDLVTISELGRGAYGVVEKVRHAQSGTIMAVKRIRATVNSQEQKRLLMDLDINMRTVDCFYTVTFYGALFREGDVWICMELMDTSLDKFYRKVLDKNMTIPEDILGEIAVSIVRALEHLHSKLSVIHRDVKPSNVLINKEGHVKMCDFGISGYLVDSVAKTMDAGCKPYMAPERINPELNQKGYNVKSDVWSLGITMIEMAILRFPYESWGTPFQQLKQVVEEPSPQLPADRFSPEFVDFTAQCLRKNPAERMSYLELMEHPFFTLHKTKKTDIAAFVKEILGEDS"}, "[2]": {"tested_on": "Epidermal growth factor receptor (Homo sapiens), P00533 [UNDEFINED MUTATION]"}, "[3]": {"molecular_target": "Aurora kinase C (Homo sapiens) (UniProt Q9UQB9)"}, "[4]": {"molecular_target": "Serine/threonine-protein kinase Chk1 (Homo sapiens) (UniProt O14757)"}, "[5]": {"tested_on": "Tyrosine-protein kinase ABL1 (Homo sapiens), P00519 [M351T]"}, "[6]": {"molecular_target": "Mitogen-activated protein kinase 1 (Homo sapiens) (UniProt P28482)", "sequence (P28482 whole entry)": "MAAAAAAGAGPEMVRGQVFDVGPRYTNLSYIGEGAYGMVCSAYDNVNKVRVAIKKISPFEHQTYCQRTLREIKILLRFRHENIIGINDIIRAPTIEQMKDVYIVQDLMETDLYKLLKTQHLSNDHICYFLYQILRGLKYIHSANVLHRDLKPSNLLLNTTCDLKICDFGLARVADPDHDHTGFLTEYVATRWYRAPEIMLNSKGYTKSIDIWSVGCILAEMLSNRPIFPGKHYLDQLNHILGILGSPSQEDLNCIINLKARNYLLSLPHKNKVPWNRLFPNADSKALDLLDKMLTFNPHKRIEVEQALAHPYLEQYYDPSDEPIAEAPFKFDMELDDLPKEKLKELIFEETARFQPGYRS"}, "[7]": {"molecular_target": "Mitogen-activated protein kinase 8 (Homo sapiens) (UniProt P45983)"}, "[8]": {"tested_on": "Receptor-type tyrosine-protein kinase FLT3 (Homo sapiens), P36888 [N841I]"}, "[9]": {"molecular_target": "Tyrosine-protein kinase Fer (Homo sapiens) (UniProt P16591)", "sequence (P16591 whole entry, looked up)": "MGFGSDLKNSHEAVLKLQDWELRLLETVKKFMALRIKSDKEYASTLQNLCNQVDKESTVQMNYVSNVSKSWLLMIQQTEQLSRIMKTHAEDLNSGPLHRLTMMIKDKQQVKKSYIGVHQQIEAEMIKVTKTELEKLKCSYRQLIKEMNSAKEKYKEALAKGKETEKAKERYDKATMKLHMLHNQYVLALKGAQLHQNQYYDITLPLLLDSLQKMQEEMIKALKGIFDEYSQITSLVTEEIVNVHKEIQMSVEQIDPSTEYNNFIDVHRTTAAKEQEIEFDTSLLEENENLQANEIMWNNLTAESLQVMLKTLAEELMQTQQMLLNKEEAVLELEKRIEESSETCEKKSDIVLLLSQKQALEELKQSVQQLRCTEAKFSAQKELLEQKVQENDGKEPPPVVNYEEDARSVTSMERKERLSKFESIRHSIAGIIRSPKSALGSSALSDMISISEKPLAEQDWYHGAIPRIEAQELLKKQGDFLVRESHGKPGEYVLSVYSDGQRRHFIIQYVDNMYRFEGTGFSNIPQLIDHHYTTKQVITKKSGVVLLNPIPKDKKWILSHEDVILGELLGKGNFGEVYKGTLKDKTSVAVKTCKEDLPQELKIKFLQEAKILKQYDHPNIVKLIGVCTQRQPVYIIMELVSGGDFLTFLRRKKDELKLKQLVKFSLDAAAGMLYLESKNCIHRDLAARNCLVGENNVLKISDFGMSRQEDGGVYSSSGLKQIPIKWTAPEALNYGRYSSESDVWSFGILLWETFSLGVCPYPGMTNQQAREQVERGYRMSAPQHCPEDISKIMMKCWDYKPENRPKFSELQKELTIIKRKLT"}, "[10]": {"molecular_target": "Calcium/calmodulin-dependent protein kinase type 1 (Homo sapiens) (UniProt Q14012)"}, "[11]": {"tested_on": "Epidermal growth factor receptor (Homo sapiens), P00533 [G719C]"}, "[12]": {"molecular_target": "Cyclin-dependent kinase 18 (Homo sapiens) (UniProt Q07002)", "sequence (Q07002 whole entry)": "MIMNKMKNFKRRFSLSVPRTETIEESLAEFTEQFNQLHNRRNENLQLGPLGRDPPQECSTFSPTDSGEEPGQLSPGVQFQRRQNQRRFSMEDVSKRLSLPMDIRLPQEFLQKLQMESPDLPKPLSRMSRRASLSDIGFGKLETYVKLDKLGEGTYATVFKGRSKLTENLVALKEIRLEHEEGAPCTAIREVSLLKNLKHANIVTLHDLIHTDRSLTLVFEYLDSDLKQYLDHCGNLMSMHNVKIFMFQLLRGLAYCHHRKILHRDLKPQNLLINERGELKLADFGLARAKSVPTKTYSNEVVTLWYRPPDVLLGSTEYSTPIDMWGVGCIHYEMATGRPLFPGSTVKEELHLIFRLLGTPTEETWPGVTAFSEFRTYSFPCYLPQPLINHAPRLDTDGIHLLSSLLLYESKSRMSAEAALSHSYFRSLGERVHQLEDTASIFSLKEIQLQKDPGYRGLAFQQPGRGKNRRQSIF"}, "[13]": {"tested_on": "Receptor-type tyrosine-protein kinase FLT3 (Homo sapiens), P36888 [D835H]"}, "[14]": {"molecular_target": "Megakaryocyte-associated tyrosine-protein kinase (Homo sapiens) (UniProt P42679)"}, "[15]": {"molecular_target": "Mitogen-activated protein kinase 12 (Homo sapiens) (UniProt P53778)"}, "[16]": {"molecular_target": "Mitogen-activated protein kinase kinase kinase kinase 3 (Homo sapiens) (UniProt Q8IVH8)"}, "[17]": {"molecular_target": "Tyrosine-protein kinase receptor TYRO3 (Homo sapiens) (UniProt Q06418)"}, "[18]": {"tested_on": "Phosphatidylinositol 4,5-bisphosphate 3-kinase catalytic subunit alpha isoform (Homo sapiens), P42336 [E545K]"}, "[19]": {"tested_on": "Receptor-type tyrosine-protein kinase FLT3 (Homo sapiens), P36888 [UNDEFINED MUTATION]"}, "[20]": {"molecular_target": "Dual specificity mitogen-activated protein kinase kinase 2 (Homo sapiens) (UniProt P36507)", "sequence (P36507 whole entry)": "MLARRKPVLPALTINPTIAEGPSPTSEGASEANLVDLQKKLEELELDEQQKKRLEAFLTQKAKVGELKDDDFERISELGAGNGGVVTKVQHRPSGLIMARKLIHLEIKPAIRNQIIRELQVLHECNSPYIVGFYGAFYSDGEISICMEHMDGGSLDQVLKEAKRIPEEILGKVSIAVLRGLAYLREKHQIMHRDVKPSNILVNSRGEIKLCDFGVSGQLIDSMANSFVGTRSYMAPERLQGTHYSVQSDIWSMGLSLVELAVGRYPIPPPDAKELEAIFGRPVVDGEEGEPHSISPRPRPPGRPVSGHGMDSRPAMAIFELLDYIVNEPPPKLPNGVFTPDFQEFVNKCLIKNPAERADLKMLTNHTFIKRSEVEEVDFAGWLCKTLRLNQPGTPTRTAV"}, "[21]": {"molecular_target": "Mast/stem cell growth factor receptor Kit (Homo sapiens) (UniProt P10721)"}, "[22]": {"molecular_target": "Casein kinase I isoform gamma-1 (Homo sapiens) (UniProt Q9HCP0)", "sequence (Q9HCP0 whole entry, looked up, canonical isoform)": "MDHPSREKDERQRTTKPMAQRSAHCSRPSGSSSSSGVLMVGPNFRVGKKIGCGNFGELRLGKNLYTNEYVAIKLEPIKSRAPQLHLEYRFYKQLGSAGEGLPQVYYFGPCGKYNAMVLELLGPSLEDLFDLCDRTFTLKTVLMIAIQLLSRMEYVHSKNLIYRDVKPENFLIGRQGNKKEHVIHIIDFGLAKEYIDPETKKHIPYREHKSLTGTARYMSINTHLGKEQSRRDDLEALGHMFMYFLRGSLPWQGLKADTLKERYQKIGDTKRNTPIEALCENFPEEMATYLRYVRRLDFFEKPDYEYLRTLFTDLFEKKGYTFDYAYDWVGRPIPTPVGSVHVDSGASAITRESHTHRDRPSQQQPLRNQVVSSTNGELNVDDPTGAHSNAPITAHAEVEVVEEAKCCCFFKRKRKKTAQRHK"}, "[23]": {"molecular_target": "Mitogen-activated protein kinase kinase kinase 15 (Homo sapiens) (UniProt Q6ZN16)"}, "[24]": {"molecular_target": "Serine/threonine-protein kinase SIK3 (Homo sapiens) (UniProt Q9Y2K2)", "sequence (Q9Y2K2 whole entry, looked up)": "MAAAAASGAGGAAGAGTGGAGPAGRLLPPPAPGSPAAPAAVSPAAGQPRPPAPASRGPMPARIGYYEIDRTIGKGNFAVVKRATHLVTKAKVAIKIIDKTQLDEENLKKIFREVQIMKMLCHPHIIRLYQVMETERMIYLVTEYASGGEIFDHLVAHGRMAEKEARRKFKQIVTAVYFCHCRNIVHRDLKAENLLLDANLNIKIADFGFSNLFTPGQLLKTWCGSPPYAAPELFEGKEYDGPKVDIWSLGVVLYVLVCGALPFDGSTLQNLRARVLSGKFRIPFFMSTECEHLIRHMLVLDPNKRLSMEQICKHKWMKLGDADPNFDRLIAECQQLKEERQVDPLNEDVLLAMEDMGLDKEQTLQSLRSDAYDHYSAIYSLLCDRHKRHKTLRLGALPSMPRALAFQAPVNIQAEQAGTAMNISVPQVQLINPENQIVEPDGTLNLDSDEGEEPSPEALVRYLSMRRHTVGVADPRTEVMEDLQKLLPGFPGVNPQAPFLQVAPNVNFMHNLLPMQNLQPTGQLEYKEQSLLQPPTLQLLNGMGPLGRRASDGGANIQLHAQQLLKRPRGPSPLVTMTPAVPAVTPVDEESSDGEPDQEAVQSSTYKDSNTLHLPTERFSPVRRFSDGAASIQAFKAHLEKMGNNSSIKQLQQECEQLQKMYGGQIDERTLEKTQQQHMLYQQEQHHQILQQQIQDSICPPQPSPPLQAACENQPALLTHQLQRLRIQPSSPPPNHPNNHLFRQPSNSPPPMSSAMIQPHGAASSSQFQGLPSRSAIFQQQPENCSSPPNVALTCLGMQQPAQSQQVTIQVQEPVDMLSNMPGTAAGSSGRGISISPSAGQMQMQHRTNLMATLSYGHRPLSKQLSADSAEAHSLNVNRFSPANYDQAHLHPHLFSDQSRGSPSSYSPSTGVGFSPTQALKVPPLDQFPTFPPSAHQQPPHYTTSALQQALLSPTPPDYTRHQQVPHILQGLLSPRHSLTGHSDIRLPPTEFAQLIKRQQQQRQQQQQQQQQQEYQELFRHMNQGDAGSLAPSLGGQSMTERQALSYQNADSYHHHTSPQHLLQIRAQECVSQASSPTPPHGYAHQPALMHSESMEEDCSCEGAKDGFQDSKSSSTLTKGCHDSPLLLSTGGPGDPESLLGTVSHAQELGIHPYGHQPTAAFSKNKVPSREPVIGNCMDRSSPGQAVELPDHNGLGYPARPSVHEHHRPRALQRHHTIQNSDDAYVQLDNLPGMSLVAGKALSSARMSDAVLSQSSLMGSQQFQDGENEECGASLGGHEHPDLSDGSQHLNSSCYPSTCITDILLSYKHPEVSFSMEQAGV"}, "[25]": {"molecular_target": "Serine/threonine-protein kinase 16 (Homo sapiens) (UniProt O75716)"}, "[26]": {"tested_on": "Hepatocyte growth factor receptor (Homo sapiens), P08581 [Y1235D]"}, "[27]": {"molecular_target": "Serine/threonine-protein kinase LATS2 (Homo sapiens) (UniProt Q9NRM7)"}, "[28]": {"molecular_target": "Serine/threonine-protein kinase pim-1 (Homo sapiens) (UniProt P11309)"}, "[29]": {"molecular_target": "Mitogen-activated protein kinase kinase kinase 3 (Homo sapiens) (UniProt Q99759)"}, "[30]": {"molecular_target": "Serine/threonine-protein kinase ICK (Homo sapiens) (UniProt Q9UPZ9)"}, "[31]": {"molecular_target": "Serine/threonine-protein kinase Nek3 (Homo sapiens) (UniProt P51956)"}, "[32]": {"molecular_target": "Serine/threonine-protein kinase Chk2 (Homo sapiens, UniProt O96017)"}, "[33]": {"molecular_target": "Muscle, skeletal receptor tyrosine-protein kinase (Homo sapiens) (UniProt O15146)"}, "[34]": {"molecular_target": "Calcium-dependent protein kinase 1 (Plasmodium falciparum) (UniProt P62344)"}, "[35]": {"molecular_target": "NUAK family SNF1-like kinase 2 (Homo sapiens) (UniProt Q9H093)"}, "[36]": {"molecular_target": "Serine/threonine-protein kinase DCLK3 (Homo sapiens) (UniProt Q9C098)"}, "[37]": {"molecular_target": "RAC-beta serine/threonine-protein kinase (Homo sapiens) (UniProt P31751)"}, "[38]": {"molecular_target": "Cyclin-dependent kinase 9 (Homo sapiens) (UniProt P50750)", "sequence (P50750 whole entry)": "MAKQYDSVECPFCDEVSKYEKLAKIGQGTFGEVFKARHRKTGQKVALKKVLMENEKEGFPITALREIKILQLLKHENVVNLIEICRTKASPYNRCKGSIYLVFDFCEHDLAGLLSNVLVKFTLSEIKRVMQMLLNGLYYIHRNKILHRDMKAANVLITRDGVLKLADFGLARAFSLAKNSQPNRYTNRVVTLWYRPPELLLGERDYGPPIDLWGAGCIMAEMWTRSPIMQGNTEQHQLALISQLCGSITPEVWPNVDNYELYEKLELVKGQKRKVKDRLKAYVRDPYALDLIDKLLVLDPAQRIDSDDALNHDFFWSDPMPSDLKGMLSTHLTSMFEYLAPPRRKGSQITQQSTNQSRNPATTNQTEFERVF"}, "[39]": {"molecular_target": "Inhibitor of nuclear factor kappa-B kinase subunit alpha (Homo sapiens) (UniProt O15111)"}, "[40]": {"molecular_target": "Dual specificity tyrosine-phosphorylation-regulated kinase 1A (Homo sapiens) (UniProt Q13627)"}, "[41]": {"molecular_target": "Serine/threonine-protein kinase ULK3 (Homo sapiens) (UniProt Q6PHR2)", "sequence (Q6PHR2 whole entry)": "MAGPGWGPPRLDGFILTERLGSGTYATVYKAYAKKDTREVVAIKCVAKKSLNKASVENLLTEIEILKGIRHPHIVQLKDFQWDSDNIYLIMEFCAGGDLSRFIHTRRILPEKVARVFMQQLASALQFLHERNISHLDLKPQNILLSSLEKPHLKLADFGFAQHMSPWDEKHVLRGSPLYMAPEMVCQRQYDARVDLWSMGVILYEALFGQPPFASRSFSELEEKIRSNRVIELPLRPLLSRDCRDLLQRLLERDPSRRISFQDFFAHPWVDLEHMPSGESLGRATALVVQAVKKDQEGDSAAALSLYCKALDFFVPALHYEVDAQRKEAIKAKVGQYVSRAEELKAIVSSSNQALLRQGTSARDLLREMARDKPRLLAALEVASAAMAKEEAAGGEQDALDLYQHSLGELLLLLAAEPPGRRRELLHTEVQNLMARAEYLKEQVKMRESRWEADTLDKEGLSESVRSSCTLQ"}, "[42]": {"molecular_target": "Mitogen-activated protein kinase 15 (Homo sapiens) (UniProt Q8TD08)"}, "[43]": {"molecular_target": "1-phosphatidylinositol 3-phosphate 5-kinase (Homo sapiens) (UniProt Q9Y2I7)"}, "[44]": {"molecular_target": "Ephrin type-B receptor 4 (Homo sapiens) (UniProt P54760)"}, "[45]": {"molecular_target": "Bone morphogenetic protein receptor type-1A (Homo sapiens) (UniProt P36894)"}}}
{"smiles": "CS(=O)(=O)N1CCCC(NC(=O)[C@H](CCC2CCCCC2)NC(=O)c2ccc(CNc3ncnc4c3nnn4-c3ccccc3)cc2)C1", "note": "(stereo not given in full) [SR-301]", "values": [{"measurement": "residual activity", "setting": "[1]", "result": 85, "unit": "%"}, {"measurement": "residual activity", "setting": "[2]", "result": 66, "unit": "%"}, {"measurement": "residual activity", "setting": "[3]", "result": 78, "unit": "%"}, {"measurement": "residual activity", "setting": "[4]", "result": 100, "unit": "%"}, {"measurement": "residual activity", "setting": "[5]", "result": 100, "unit": "%"}, {"measurement": "residual activity", "setting": "[6]", "result": 90, "unit": "%"}, {"measurement": "residual activity", "setting": "[7]", "result": 85, "unit": "%"}, {"measurement": "residual activity", "setting": "[8]", "result": 99, "unit": "%"}, {"measurement": "residual activity", "setting": "[9]", "result": 86, "unit": "%"}, {"measurement": "residual activity", "setting": "[10]", "result": 96, "unit": "%"}, {"measurement": "residual activity", "setting": "[11]", "result": 86, "unit": "%"}, {"measurement": "residual activity", "setting": "[12]", "result": 100, "unit": "%"}, {"measurement": "residual activity", "setting": "[13]", "result": 94, "unit": "%"}, {"measurement": "residual activity", "setting": "[14]", "result": 100, "unit": "%"}, {"measurement": "residual activity", "setting": "[15]", "result": 100, "unit": "%"}, {"measurement": "residual activity", "setting": "[16]", "result": 75, "unit": "%"}, {"measurement": "residual activity", "setting": "[17]", "result": 90, "unit": "%"}, {"measurement": "residual activity", "setting": "[18]", "result": 53, "unit": "%"}, {"measurement": "residual activity", "setting": "[19]", "result": 100, "unit": "%"}, {"measurement": "residual activity", "setting": "[20]", "result": 90, "unit": "%"}, {"measurement": "residual activity", "setting": "[21]", "result": 100, "unit": "%"}, {"measurement": "residual activity", "setting": "[22]", "result": 100, "unit": "%"}, {"measurement": "residual activity", "setting": "[23]", "result": 74, "unit": "%"}, {"measurement": "residual activity", "setting": "[24]", "result": 78, "unit": "%"}, {"measurement": "residual activity", "setting": "[25]", "result": 100, "unit": "%"}, {"measurement": "residual activity", "setting": "[26]", "result": 98, "unit": "%"}, {"measurement": "residual activity", "setting": "[27]", "result": 100, "unit": "%"}, {"measurement": "residual activity", "setting": "[28]", "result": 95, "unit": "%"}, {"measurement": "residual activity", "setting": "[29]", "result": 100, "unit": "%"}, {"measurement": "residual activity", "setting": "[30]", "result": 100, "unit": "%"}, {"measurement": "residual activity", "setting": "[31]", "result": 100, "unit": "%"}, {"measurement": "residual activity", "setting": "[32]", "result": 100, "unit": "%"}, {"measurement": "residual activity", "setting": "[33]", "result": 100, "unit": "%"}, {"measurement": "residual activity", "setting": "[34]", "result": 100, "unit": "%"}, {"measurement": "residual activity", "setting": "[35]", "result": 100, "unit": "%"}, {"measurement": "residual activity", "setting": "[36]", "result": 87, "unit": "%"}, {"measurement": "residual activity", "setting": "[37]", "result": 100, "unit": "%"}, {"measurement": "residual activity", "setting": "[38]", "result": 87, "unit": "%"}, {"measurement": "residual activity", "setting": "[39]", "result": 100, "unit": "%"}, {"measurement": "residual activity", "setting": "[40]", "result": 87, "unit": "%"}, {"measurement": "residual activity", "setting": "[41]", "result": 99, "unit": "%"}, {"measurement": "residual activity", "setting": "[42]", "result": 100, "unit": "%"}, {"measurement": "residual activity", "setting": "[43]", "result": 61, "unit": "%"}, {"measurement": "residual activity", "setting": "[44]", "result": 96, "unit": "%"}, {"measurement": "residual activity", "setting": "[45]", "result": 90, "unit": "%"}]}
{"smiles": "CS(=O)(=O)N1CCCC(NC(=O)[C@H](CCC2CCCCC2)NC(=O)c2ccc(CNC(=O)c3cnc4ccccn34)cc2)C1", "note": "(stereo not given in full) [SR-302]", "values": [{"measurement": "residual activity", "setting": "[1]", "result": 100, "unit": "%"}, {"measurement": "residual activity", "setting": "[2]", "result": 99, "unit": "%"}, {"measurement": "residual activity", "setting": "[3]", "result": 98, "unit": "%"}, {"measurement": "residual activity", "setting": "[4]", "result": 100, "unit": "%"}, {"measurement": "residual activity", "setting": "[5]", "result": 100, "unit": "%"}, {"measurement": "residual activity", "setting": "[6]", "result": 100, "unit": "%"}, {"measurement": "residual activity", "setting": "[7]", "result": 100, "unit": "%"}, {"measurement": "residual activity", "setting": "[8]", "result": 67, "unit": "%"}, {"measurement": "residual activity", "setting": "[9]", "result": 99, "unit": "%"}, {"measurement": "residual activity", "setting": "[10]", "result": 100, "unit": "%"}, {"measurement": "residual activity", "setting": "[11]", "result": 100, "unit": "%"}, {"measurement": "residual activity", "setting": "[12]", "result": 100, "unit": "%"}, {"measurement": "residual activity", "setting": "[13]", "result": 100, "unit": "%"}, {"measurement": "residual activity", "setting": "[14]", "result": 100, "unit": "%"}, {"measurement": "residual activity", "setting": "[15]", "result": 100, "unit": "%"}, {"measurement": "residual activity", "setting": "[16]", "result": 87, "unit": "%"}, {"measurement": "residual activity", "setting": "[17]", "result": 83, "unit": "%"}, {"measurement": "residual activity", "setting": "[18]", "result": 86, "unit": "%"}, {"measurement": "residual activity", "setting": "[19]", "result": 86, "unit": "%"}, {"measurement": "residual activity", "setting": "[20]", "result": 100, "unit": "%"}, {"measurement": "residual activity", "setting": "[21]", "result": 100, "unit": "%"}, {"measurement": "residual activity", "setting": "[22]", "result": 100, "unit": "%"}, {"measurement": "residual activity", "setting": "[23]", "result": 100, "unit": "%"}, {"measurement": "residual activity", "setting": "[24]", "result": 100, "unit": "%"}, {"measurement": "residual activity", "setting": "[25]", "result": 100, "unit": "%"}, {"measurement": "residual activity", "setting": "[26]", "result": 99, "unit": "%"}, {"measurement": "residual activity", "setting": "[27]", "result": 76, "unit": "%"}, {"measurement": "residual activity", "setting": "[28]", "result": 89, "unit": "%"}, {"measurement": "residual activity", "setting": "[29]", "result": 100, "unit": "%"}, {"measurement": "residual activity", "setting": "[30]", "result": 100, "unit": "%"}, {"measurement": "residual activity", "setting": "[31]", "result": 100, "unit": "%"}, {"measurement": "residual activity", "setting": "[32]", "result": 37, "unit": "%"}, {"measurement": "residual activity", "setting": "[33]", "result": 91, "unit": "%"}, {"measurement": "residual activity", "setting": "[34]", "result": 78, "unit": "%"}, {"measurement": "residual activity", "setting": "[35]", "result": 100, "unit": "%"}, {"measurement": "residual activity", "setting": "[36]", "result": 97, "unit": "%"}, {"measurement": "residual activity", "setting": "[37]", "result": 93, "unit": "%"}, {"measurement": "residual activity", "setting": "[38]", "result": 100, "unit": "%"}, {"measurement": "residual activity", "setting": "[39]", "result": 100, "unit": "%"}, {"measurement": "residual activity", "setting": "[40]", "result": 100, "unit": "%"}, {"measurement": "residual activity", "setting": "[41]", "result": 100, "unit": "%"}, {"measurement": "residual activity", "setting": "[42]", "result": 100, "unit": "%"}, {"measurement": "residual activity", "setting": "[43]", "result": 100, "unit": "%"}, {"measurement": "residual activity", "setting": "[44]", "result": 97, "unit": "%"}, {"measurement": "residual activity", "setting": "[45]", "result": 94, "unit": "%"}]}
